Numbers after ± are expanded uncertainties.
Tests used:
[1] = excess molar enthalpy (molar enthalpy of mixing); xn = mol fraction of the nth substance listed; conditions: 298.15 K, 101 kPa, Liquid, Calvet calorimetry
[2] = xn = mol fraction of the nth substance listed; conditions: 298.15 K, 101 kPa, Liquid, Vibrating tube method
[3] = refractive index (Na D-line) (dimensionless); conditions: 298.15 K; 101.33 kPa; Liquid; Standard Abbe refractometry
[4] = 298.15 K; 101.33 kPa; Liquid; Vibrating tube method

## CCCCC(=O)OCC [ethyl pentanoate] + CCOC(C)=O
[1]; x1 = 0.0627
  excess molar enthalpy: 0.049 ± 0.002 kJ/mol
[1]; x1 = 0.1347
  excess molar enthalpy: 0.089 ± 0.002 kJ/mol
[1]; x1 = 0.2071
  excess molar enthalpy: 0.118 ± 0.003 kJ/mol
[1]; x1 = 0.2799
  excess molar enthalpy: 0.139 ± 0.003 kJ/mol
[1]; x1 = 0.3493
  excess molar enthalpy: 0.147 ± 0.003 kJ/mol
[1]; x1 = 0.4144
  excess molar enthalpy: 0.152 ± 0.004 kJ/mol
[1]; x1 = 0.4736
  excess molar enthalpy: 0.157 ± 0.004 kJ/mol
[1]; x1 = 0.5198
  excess molar enthalpy: 0.154 ± 0.004 kJ/mol
[1]; x1 = 0.561
  excess molar enthalpy: 0.151 ± 0.004 kJ/mol
[1]; x1 = 0.6071
  excess molar enthalpy: 0.145 ± 0.003 kJ/mol
[1]; x1 = 0.6645
  excess molar enthalpy: 0.133 ± 0.003 kJ/mol
[1]; x1 = 0.7376
  excess molar enthalpy: 0.114 ± 0.003 kJ/mol
[1]; x1 = 0.8193
  excess molar enthalpy: 0.088 ± 0.002 kJ/mol
[1]; x1 = 0.8904
  excess molar enthalpy: 0.058 ± 0.002 kJ/mol
[1]; x1 = 0.9529
  excess molar enthalpy: 0.03 ± 0.001 kJ/mol
[2]; x1 = 0.0482
  mass density: 892.36 ± 0.23 kg/m3
[2]; x1 = 0.0954
  mass density: 890.53 ± 0.23 kg/m3
[2]; x1 = 0.148
  mass density: 888.63 ± 0.23 kg/m3
[2]; x1 = 0.1941
  mass density: 887.05 ± 0.23 kg/m3
[2]; x1 = 0.3047
  mass density: 883.64 ± 0.24 kg/m3
[2]; x1 = 0.4
  mass density: 881.02 ± 0.24 kg/m3
[2]; x1 = 0.4921
  mass density: 878.73 ± 0.24 kg/m3
[2]; x1 = 0.5717
  mass density: 876.92 ± 0.24 kg/m3
[2]; x1 = 0.6556
  mass density: 875.16 ± 0.24 kg/m3
[2]; x1 = 0.6946
  mass density: 874.41 ± 0.24 kg/m3
[2]; x1 = 0.7526
  mass density: 873.29 ± 0.24 kg/m3
[2]; x1 = 0.7924
  mass density: 872.6 ± 0.2 kg/m3
[2]; x1 = 0.8362
  mass density: 871.84 ± 0.24 kg/m3
[2]; x1 = 0.8651
  mass density: 871.36 ± 0.24 kg/m3
[2]; x1 = 0.9263
  mass density: 870.36 ± 0.24 kg/m3
[2]; x1 = 0.9377
  mass density: 870.21 ± 0.24 kg/m3

## CCCCC(=O)OCC [ethyl pentanoate] + CCCCCCCCCCCC
[1]; x2 = 0.043
  excess molar enthalpy: 0.192 ± 0.005 kJ/mol
[1]; x2 = 0.0928
  excess molar enthalpy: 0.371 ± 0.008 kJ/mol
[1]; x2 = 0.1433
  excess molar enthalpy: 0.54 ± 0.012 kJ/mol
[1]; x2 = 0.1957
  excess molar enthalpy: 0.684 ± 0.015 kJ/mol
[1]; x2 = 0.2488
  excess molar enthalpy: 0.802 ± 0.017 kJ/mol
[1]; x2 = 0.3005
  excess molar enthalpy: 0.894 ± 0.019 kJ/mol
[1]; x2 = 0.3181
  excess molar enthalpy: 0.916 ± 0.02 kJ/mol
[1]; x2 = 0.3511
  excess molar enthalpy: 0.961 ± 0.021 kJ/mol
[1]; x2 = 0.3548
  excess molar enthalpy: 0.971 ± 0.021 kJ/mol
[1]; x2 = 0.3978
  excess molar enthalpy: 1.01 ± 0.022 kJ/mol
[1]; x2 = 0.446
  excess molar enthalpy: 1.05 ± 0.022 kJ/mol
[1]; x2 = 0.5012
  excess molar enthalpy: 1.06 ± 0.023 kJ/mol
[1]; x2 = 0.5648
  excess molar enthalpy: 1.03 ± 0.022 kJ/mol
[1]; x2 = 0.6392
  excess molar enthalpy: 0.961 ± 0.021 kJ/mol
[1]; x2 = 0.7228
  excess molar enthalpy: 0.826 ± 0.018 kJ/mol
[1]; x2 = 0.8127
  excess molar enthalpy: 0.621 ± 0.013 kJ/mol
[1]; x2 = 0.9036
  excess molar enthalpy: 0.375 ± 0.008 kJ/mol
[2]; x2 = 0.0505
  mass density: 858.92 ± 0.26 kg/m3
[2]; x2 = 0.1024
  mass density: 849.09 ± 0.28 kg/m3
[2]; x2 = 0.1522
  mass density: 840.25 ± 0.29 kg/m3
[2]; x2 = 0.1998
  mass density: 832.32 ± 0.3 kg/m3
[2]; x2 = 0.2496
  mass density: 824.53 ± 0.32 kg/m3
[2]; x2 = 0.3013
  mass density: 816.7 ± 0.33 kg/m3
[2]; x2 = 0.4039
  mass density: 802.81 ± 0.37 kg/m3
[2]; x2 = 0.502
  mass density: 790.76 ± 0.4 kg/m3
[2]; x2 = 0.6026
  mass density: 779.67 ± 0.43 kg/m3
[2]; x2 = 0.6547
  mass density: 774.3 ± 0.45 kg/m3
[2]; x2 = 0.6992
  mass density: 769.94 ± 0.47 kg/m3
[2]; x2 = 0.7485
  mass density: 765.35 ± 0.48 kg/m3
[2]; x2 = 0.7982
  mass density: 760.93 ± 0.5 kg/m3
[2]; x2 = 0.847
  mass density: 756.88 ± 0.52 kg/m3
[2]; x2 = 0.8918
  mass density: 753.23 ± 0.54 kg/m3
[2]; x2 = 0.9497
  mass density: 748.76 ± 0.56 kg/m3

## CCCCCCCCCCCC [dodecane]
[3]
  refractive index: 1.4192 ± 0.0006
[4]
  mass density: 745.1 ± 0.58 kg/m3

## CCOC(C)=O [ethyl acetate]
[3]
  refractive index: 1.37 ± 0.0005
[4]
  mass density: 894.34 ± 0.23 kg/m3

## CCCCC(=O)OCC [ethyl pentanoate]
[3]
  refractive index: 1.3981 ± 0.0005
[4]
  mass density: 869.28 ± 0.23 kg/m3

## CCCCCCCCCCCC [dodecane] + CCOC(C)=O
[1]; x1 = 0.0232
  excess molar enthalpy: 0.236 ± 0.006 kJ/mol
[1]; x1 = 0.0541
  excess molar enthalpy: 0.503 ± 0.011 kJ/mol
[1]; x1 = 0.0898
  excess molar enthalpy: 0.771 ± 0.017 kJ/mol
[1]; x1 = 0.1316
  excess molar enthalpy: 1.03 ± 0.022 kJ/mol
[1]; x1 = 0.18
  excess molar enthalpy: 1.28 ± 0.027 kJ/mol
[1]; x1 = 0.2292
  excess molar enthalpy: 1.48 ± 0.032 kJ/mol
[1]; x1 = 0.279
  excess molar enthalpy: 1.63 ± 0.035 kJ/mol
[1]; x1 = 0.3296
  excess molar enthalpy: 1.74 ± 0.037 kJ/mol
[1]; x1 = 0.3789
  excess molar enthalpy: 1.82 ± 0.039 kJ/mol
[1]; x1 = 0.4062
  excess molar enthalpy: 1.85 ± 0.039 kJ/mol
[1]; x1 = 0.4261
  excess molar enthalpy: 1.86 ± 0.04 kJ/mol
[1]; x1 = 0.4718
  excess molar enthalpy: 1.87 ± 0.04 kJ/mol
[1]; x1 = 0.4736
  excess molar enthalpy: 1.87 ± 0.04 kJ/mol
[1]; x1 = 0.5534
  excess molar enthalpy: 1.8 ± 0.038 kJ/mol
[1]; x1 = 0.647
  excess molar enthalpy: 1.61 ± 0.034 kJ/mol
[1]; x1 = 0.7424
  excess molar enthalpy: 1.31 ± 0.028 kJ/mol
[1]; x1 = 0.8396
  excess molar enthalpy: 0.896 ± 0.019 kJ/mol
[1]; x1 = 0.9339
  excess molar enthalpy: 0.423 ± 0.009 kJ/mol
[2]; x1 = 0.097
  mass density: 860.06 ± 0.29 kg/m3
[2]; x1 = 0.146
  mass density: 846.23 ± 0.3 kg/m3
[2]; x1 = 0.1976
  mass density: 833.46 ± 0.31 kg/m3
[2]; x1 = 0.2508
  mass density: 821.88 ± 0.32 kg/m3
[2]; x1 = 0.2979
  mass density: 812.79 ± 0.33 kg/m3
[2]; x1 = 0.3903
  mass density: 797.68 ± 0.36 kg/m3
[2]; x1 = 0.4943
  mass density: 783.92 ± 0.39 kg/m3
[2]; x1 = 0.6
  mass density: 772.56 ± 0.43 kg/m3
[2]; x1 = 0.6909
  mass density: 764.45 ± 0.46 kg/m3
[2]; x1 = 0.7392
  mass density: 760.65 ± 0.48 kg/m3
[2]; x1 = 0.7931
  mass density: 756.85 ± 0.5 kg/m3
[2]; x1 = 0.8213
  mass density: 754.91 ± 0.51 kg/m3
[2]; x1 = 0.8798
  mass density: 751.38 ± 0.53 kg/m3
[2]; x1 = 0.9374
  mass density: 748.08 ± 0.55 kg/m3

Reference: the NIST ThermoML archive (doi:10.1016/j.jct.2012.03.011)
